Test results from patent US20220315567A1 (priority 2016, published 2022).
Structures can show the parent of a compound that is named as a salt. Where two headings read alike, the source gives them in different places.

Tests used:
[1] = target: T1, human OPRM1 (μ, MOR) (Homo sapiens, UniProt P35372); assay: cell-based; details: for Emax: OPRM1, read-out: cAMP Emax; for EC50: PathHunter human OPRM1 Arrestin CHO-K1 cell line, read-out: cAMP EC50
T1 construct: host or cells: CHO-K1
Protocol: G-protein signaling was measured via second messenger cAMP modulation. Detection of cAMP modulation was accomplished in the PathHunter human OPRM1 (μ, MOR) Arrestin CHO-K1 cell line using the Dynamic2 cAMP Kit from Cisbio.

[2] = target: T1, human OPRM1 (μ, MOR); assay type: cell-based; details: for ΔRA of compound: relative activity from EC50 and Emax of β-arrestin vs cAMP, lower RA = more G-protein biased
Protocol: In certain embodiments, the ability of a compound to activate G-protein or β-arrestin is not an on/off switch for a given pathway, but rather a continuous function. To capture this, each compound is measured for activity in cell assays that are linked to β-arrestin recruitment and G-protein signaling. By comparing the activity between these two measures (accounting for both EC50 and maximal response reached, Emax) a relative activity (RA) value is determined.
In the case of MOR it is desirable to have high activation of the G-protein pathway while reducing activation of β-arrestin. In the case of the formula above, this means a lower RA.

[3] = target: T1, human OPRM1 (μ, MOR); assay: cell-based; details: for Emax: OPRM1, read-out: β-Arrestin Emax; for EC50: PathHunter human OPRM1 Arrestin CHO-K1 cell line, read-out: β-Arrestin EC50
Protocol: The Discoverx PathHunter® β-Arrestin assay is used to measure β-arrestin-2 activity. The technology is based on Enzyme Fragment Complementation (EFC) with β-galactosidase (β-Gal) as the reporter. […] EA is fused to Q-arrestin-2, and ED is fused to the C-terminus of the GPCR of interest. When a ligand binds and the GPCR is activated, Q-arrestin-2 is recruited to the receptor resulting in an ED/EA complementation, restoring f-Gal activity, which is measured using chemiluminescence. For this assay, the PathHunter human OPRM1 (μ, MOR) Arrestin CHO-K1 cell line was used.

T1 sequence (P35372 whole entry): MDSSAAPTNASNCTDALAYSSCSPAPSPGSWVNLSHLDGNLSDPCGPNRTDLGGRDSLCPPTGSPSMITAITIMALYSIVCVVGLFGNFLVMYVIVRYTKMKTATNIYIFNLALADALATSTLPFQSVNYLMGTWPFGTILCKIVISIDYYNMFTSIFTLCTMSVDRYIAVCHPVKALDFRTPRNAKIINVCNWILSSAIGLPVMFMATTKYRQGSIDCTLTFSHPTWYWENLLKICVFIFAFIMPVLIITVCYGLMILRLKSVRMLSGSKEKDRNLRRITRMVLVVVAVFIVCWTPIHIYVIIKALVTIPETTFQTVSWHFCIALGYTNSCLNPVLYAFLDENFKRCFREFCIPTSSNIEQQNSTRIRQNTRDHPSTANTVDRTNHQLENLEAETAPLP

| Compound | Emax [1] [%] | EC50 [1] [µM] | Bias Factor (ΔRA of compound relative to ΔRA of DAMGO) × 10 [2] | ΔRA of compound [2] | Emax [3] [%] | EC50 [3] [µM] | cAMP Emax [1] [%] | β-Arrestin Emax [3] [%] | Bias Factor (ΔRA of compound relative to ΔRA of DAMGO) × 10 ([2]; hydrochloride) | ΔRA of compound ([2]; hydrochloride) |
| --- | --- | --- | --- | --- | --- | --- | --- | --- | --- | --- |
| CN(C)C(CNC(=O)N1CCCc2ccc(F)cc21)c1ccsc1 (stereo not shown) [Compound 8a, N-(2-(dimethylamino)-2-(thiophen-3-yl)ethyl)-7-fluoro-3,4-dihydroquinoline-1(2H)-carboxamide] | 86.9 | 0.73 | <−14.83 | <−2.96 | 6.18 | > 100 |  |  |  |  |
| CN(C)C(CNC(=O)N[C@@H]1CCc2ccccc2C1)c1ccsc1 (stereo partly shown) [Compound 47] |  |  | <−14.83 | <−2.96 |  |  |  |  |  |  |
| CN(C)C(CNC(=O)N[C@H]1CCc2ccccc2C1)c1ccsc1 (stereo partly shown) [Compound 52] |  | 0.227 | <−14.83 | <−2.96 |  | > 100 | 12.2 | <1 |  |  |
| CNC(CNC(=O)N1Cc2ccc(F)cc2C1)c1ccsc1 (stereo not shown) [Compound 35, 5-Fluoro-N-(2-(methylamino)-2-(thiophen-3-yl)ethyl)isoindoline-2-carboxamide] | 26.4 | 1.17 | <−14.83 | <−2.96 | < 1 | > 100 |  |  |  |  |
| CN(C)[C@H](CCNC(=O)N1Cc2ccc(F)cc2C1)c1ccsc1 [Compound 30-R, (R)—N-(3-(Dimethylamino)-3-(thiophen-3-yl)propyl)-5-fluoroisoindoline-2-carboxamide] | 109 | 0.603 | −5.73 | −2.05 | 9.2 | 5.73 |  |  |  |  |
| CN(C)C(CNC(=O)N1Cc2ccc(O)cc2C1)c1ccsc1 (stereo not shown) [Compound 22, N-(2-(Dimethylamino)-2-(thiophen-3-yl)ethyl)-5-hydroxyisoindoline-2-carboxamide hydrobromide] | 16.3 | 0.322 | <−14.83 | <−2.96 | < 1 | > 100 |  |  |  |  |
| CN(C)C(CNC(=O)N1CCCc2ccc(O)cc21)c1ccsc1 (stereo not shown) [Compound 49] | 97 | 0.998 | <−14.83 | <−2.96 | < 1 | > 100 |  |  |  |  |
| COc1ccc(C(CNC(=O)N2CC[C@H](c3ccccc3)C2)N(C)C)cc1 (stereo partly shown) [Compound 43] | 54.2 | 1.72 | <−14.83 | <−2.96 | < 1 | > 100 |  |  |  |  |
| CN(C)C(CNC(=O)N1CC[C@H](c2ccccc2)C1)c1ccsc1 (stereo partly shown) [Compound 40] | 53.5 | 0.152 | <−14.83 | <−2.96 | 3.3 | > 100 |  |  |  |  |
| CN(C)C(CNC(=O)N[C@@H]1CCc2ccccc2C1)c1ccsc1 (stereo partly shown) [Compound 48] |  |  | <−14.83 | <−2.96 |  |  |  |  |  |  |
| CN(C)C(CNC(=O)N1Cc2ccccc2C1)c1ccsc1 (stereo not shown) [Compound 1a, N-(2-(Dimethylamino)-2-(thiophen-3-yl)ethyl)isoindoline-2-carboxamide hydrochloride] | 69.2 | 0.02 | −5.75 | −2.06 | 5.67 | 0.186 |  |  |  |  |
| CN(C)C(CNC(=O)N1Cc2ccc(O)cc2C1)c1ccc(O)cc1 (stereo not shown) [Compound 24, N-(2-(dimethylamino)-2-(4-hydroxyphenyl)ethyl)-5-hydroxyisoindoline-2-carboxamide hydrobromide] | < 10 | > 100 | <−14.83 | <−2.96 | < 1 | > 100 |  |  |  |  |
| CN(C)C(CNC(=O)N1Cc2ccccc2C1)c1ccccc1 (stereo not shown) [Compound 18a, N-(2-(Dimethylamino)-2-phenylethyl)isoindoline-2-carboxamide hydrochloride] | 100 | 0.023 |  |  | 6.91 | 0.73 |  |  | −11.84 | −2.66 |
| CN(C)[C@H](CCNC(=O)N1CC[C@H](c2ccccc2)C1)c1ccsc1 [Compound 75] | 114 | 2.09 | −3.97 | −1.88 | 12.2 | 17 |  |  |  |  |
| CN(C)C(CNC(=O)N1CCCc2ccccc21)c1ccccc1 (stereo not shown) [Compound 69a] | 110 | 0.563 | −8.38 | −2.32 | 8 | 8.56 |  |  |  |  |
| CNC(CNC(=O)N1Cc2ccccc2C1)c1ccccc1 (single isomer, unassigned) [Compound 38-ent-B, (+)—N-(2-(Methylamino)-2-phenylethyl)isoindoline-2-carboxamide] |  | 0.84 | <−14.83 | <−2.96 |  | > 100 | 97.6 | 5.9 |  |  |
| CN(C)C(CNC(=O)N[C@H]1CCc2ccc(O)cc2C1)c1ccsc1 (stereo partly shown) [Compound 60] | 27.5 | 0.676 | <−14.83 | <−2.96 | < 1 | > 100 |  |  |  |  |
| CN(C)C1(CNC(=O)N2Cc3ccccc3C2)CCCC1 [Compound 64] | 88.7 | 2.15 | <−14.83 | <−2.96 | < 1 | > 100 |  |  |  |  |
| CN(C)C(CNC(=O)N1CCCc2ccccc21)c1ccsc1 (stereo not shown) [Compound 9a, N-(2-(dimethylamino)-2-(thiophen-3-yl)ethyl)-3,4-dihydroquinoline-1(2H)-carboxamide hydrochloride] | 75.7 | 0.512 | −6.20 | −2.10 | 5.11 | 4.36 |  |  |  |  |
| CN(C)C(CNC(=O)N1Cc2ccc(F)cc2C1)c1ccccc1 (stereo not shown) [Compound 20a, N-(2-(Dimethylamino)-2-phenylethyl)-5-fluoroisoindoline-2-carboxamide hydrochloride] | 70.8 | 0.031 | <−14.83 | <−2.96 | 3.65 | > 100 |  |  |  |  |
| CN(C)C(CNC(=O)N[C@@H]1CCc2ccc(O)cc2C1)c1ccsc1 (stereo partly shown) [Compound 50] | 48.3 | 0.036 | <−14.83 | <−2.96 | < 1 | > 100 |  |  |  |  |
| CN(C)C(CNC(=O)NC1CCCc2ccccc21)c1ccsc1 (stereo not shown) [Compound 11a, 1-(2-(Dimethylamino)-2-(thiophen-3-yl)ethyl)-3-(1,2,3,4-tetrahydronaphthalen-1-yl)urea hydrochloride] | 94.3 | < 0.001 | 2.32 | −1.24 | 112 | 0.021 |  |  |  |  |
| Cc1ccc2c(c1)CN(C(=O)NCC(c1ccsc1)N(C)C)C2 (stereo not shown) [Compound 12a, N-(2-(Dimethylamino)-2-(thiophen-3-yl)ethyl)-5-methylisoindoline-2-carboxamide hydrochloride] | 6.33 | > 100 |  |  | 2.16 | > 100 |  |  |  |  |
| CN(C)C(CNC(=O)N1CC[C@@H](c2ccccc2)C1)c1ccsc1 (stereo partly shown) [Compound 41] | 9.6 | > 100 |  |  | < 1 | > 100 |  |  |  |  |
| COc1ccc2c(c1)CN(C(=O)NCC(c1ccsc1)N(C)C)C2 (stereo not shown) [Compound 5a, N-(2-(Dimethylamino)-2-(thiophen-3-yl)ethyl)-5-methoxyisoindoline-2-carboxamide hydrochloride] | 5 | > 100 |  |  | < 1 | > 100 |  |  |  |  |
| CN(C)C(CNC(=O)N1Cc2ccc(Cl)cc2C1)c1ccsc1 (stereo not shown) [Compound 4a, 5-Chloro-N-(2-(dimethylamino)-2-(thiophen-3-yl)ethyl)isoindoline-2-carboxamide hydrochloride] | 20.7 | > 100 |  |  | < 1 | > 100 |  |  |  |  |
| C[C@@H](NC(=O)[C@@H](N)Cc1ccc(O)cc1)C(=O)NCC(=O)N(C)[C@@H](Cc1ccccc1)C(=O)NCCO [DAMGO, H-Tyr-D-Ala-Gly-NMe-Phe-Gly-OH, reference compound] | 108 |  |  |  | 98.3 |  |  |  |  |  |
